The text below walks through data of ChEMBL document CHEMBL1201862, “PubChem BioAssay data set” (2004).

Some test systems named below: A549; ACHN; BT-549; COLO 205; HCT-116; HT-29; KM12; MDA-N; MOLT-4; Malme-3M; NCI-H226; OVCAR-8; RPMI-8226; SF-539; SNB-75; SW-620; T47D; IGROV-1; HOP-92.
Common to all, as to experiment: NCI-60 cell line screen, 48 h

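Exposure lasted 48 hours, with cells grown in 96-well plates and compounds tested at five concentrations. Abbreviation: GI50, concentration required for 50% inhibition of growth.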 Active and inactive are the calls of the source. Cut-off read from the data, not from the text of the source: active = GI50 up to about 1.1 µM and inactive = higher. Where only a bound is given, the exact number is not on record here.

As for `CN(C)CCn1c(=O)c2ccc3c4c(nn3CCN(C)C)c3cc(O)ccc3n(c1=O)c24`, the GI50 is 0.0325 µM (active) in the test on A549; < 0.0308 µM (active) in the test with ACHN; 0.879 µM (active) with BT-549; 0.0706 µM (active) with COLO 205; < 0.0225 µM (active) with HCT-116; < 0.01 µM (active) with HT-29. In addition, the GI50 was 0.161 µM (active) with KM12; 0.181 µM (active) in the test with MDA-N; < 0.01 µM (active) with MOLT-4; 0.354 µM (active) in the test with Malme-3M; 0.126 µM (active) in the test on NCI-H226; < 0.01 µM (active) in the test on OVCAR-8. Moreover, the GI50 with RPMI-8226 was 0.0541 µM (active); with SF-539, 1.29 µM (inactive); in the test with SNB-75 it was 0.059 µM (active); in the test on SW-620 it was 0.0365 µM (active); with T47D it was 0.378 µM (active).

As to `Cc1ccc(N/C(SCc2ccccc2)=C(\C(Cl)=C(Cl)Cl)[N+](=O)[O-])c(C)c1`, the GI50 with A549 is 27.1 µM (inactive); in the test with ACHN it was 43 µM (inactive); with BT-549, 19.2 µM (inactive); in the test with COLO 205 it was 17.8 µM (inactive); with HCT-116 it was 16.8 µM (inactive); in the test on HT-29 it was 29.8 µM (inactive). The GI50 is 17.2 µM (inactive) with KM12; 22.2 µM (inactive) with MDA-N; > 100 µM (inactive) in the test with MOLT-4; 21.4 µM (inactive) with Malme-3M; 45.2 µM (inactive) in the test with NCI-H226; 18.5 µM (inactive) in the test on OVCAR-8. In addition, the GI50 is 21.1 µM (inactive) with RPMI-8226; 19.9 µM (inactive) in the test on SF-539; 29.2 µM (inactive) with SNB-75; 15.6 µM (inactive) in the test on SW-620; 18.1 µM (inactive) in the test on T47D.

Consider `O=C1NCc2ccccc2S(=O)(=O)n2cccc21`, for which the GI50 in the test on A549 is > 100 µM (inactive); in the test on ACHN, > 100 µM (inactive); in the test with BT-549 it was > 100 µM (inactive); in the test with COLO 205 it was > 100 µM (inactive); with HCT-116, 63.1 µM (inactive); with HT-29, > 100 µM (inactive). Besides, the GI50 in the test with IGROV-1, with KM12, in the test with MDA-N, in the test with MOLT-4, in the test on Malme-3M and with NCI-H226 was > 100 µM (inactive) in each case. Moreover, the GI50 was > 100 µM (inactive) with OVCAR-8; > 100 µM (inactive) in the test on RPMI-8226; > 100 µM (inactive) in the test with SF-539; > 100 µM (inactive) in the test with SNB-75; > 100 µM (inactive) with SW-620; 50.7 µM (inactive) with T47D.

With `CN(C)CCNC(=O)Cn1cc([N+](=O)[O-])c(=O)c2ccccc21`, the GI50 in the test on A549, in the test with ACHN, in the test with BT-549, with COLO 205, in the test on HCT-116 and in the test with HT-29 was > 100 µM (inactive) each time. Further, the GI50 with IGROV-1, in the test with KM12, in the test with MDA-N, with MOLT-4, in the test with Malme-3M and in the test on NCI-H226 was > 100 µM (inactive) each time. In addition, the GI50 in the test on OVCAR-8 was > 100 µM (inactive); in the test on SF-539 it was > 100 µM (inactive); in the test with SNB-75 it was 58.3 µM (inactive); in the test on SW-620, > 100 µM (inactive); with T47D, > 100 µM (inactive).

With `COC1/C=C/C(C)C(C(C)C(OC)C(C)CCC(=O)C(C)C(C/C=C/N(C)C=O)OC)OC(=O)C=CC2OC2(C)CC(OC)C(OC)C2=CC(=O)O[C@@H](C(C)C(OC)CC(OC)/C=C/C(C)C(O)C1)[C@H]2O` (some centres undefined), the GI50 in the test on A549 was 0.00349 µM (active); with ACHN it was 0.00313 µM (active); with BT-549, 0.0214 µM (active); in the test with COLO 205, 0.0016 µM (active); in the test on HCT-116, 0.000528 µM (active); with HOP-92, 0.0056 µM (active). In addition, the GI50 in the test on HT-29 is 0.00364 µM (active); in the test with IGROV-1 it was 0.00106 µM (active); with KM12 it was 0.00708 µM (active); with MDA-N, 0.00471 µM (active); in the test with MOLT-4 it was 0.00527 µM (active); in the test with Malme-3M it was 0.00673 µM (active). Also, the GI50 in the test on NCI-H226 is 0.00615 µM (active); in the test with OVCAR-8, 0.00853 µM (active); with RPMI-8226, 0.00841 µM (active); in the test on SF-539, 0.0037 µM (active); with SW-620, 0.00379 µM (active).

Take `COc1ccccc1NCC(=O)Nn1c(C)nc2ccc(S(=O)(=O)Nc3ccccc3OC)cc2c1=O`: the GI50 with A549 is 97.5 µM (inactive); in the test with ACHN it was > 100 µM (inactive); with BT-549 it was > 100 µM (inactive); with COLO 205 it was > 100 µM (inactive); in the test with HCT-116, > 100 µM (inactive); with HOP-92, > 100 µM (inactive). The GI50 in the test with HT-29 was 43.8 µM (inactive); with IGROV-1, 42.7 µM (inactive); in the test on KM12, > 100 µM (inactive); with MDA-N, 29.7 µM (inactive); with MOLT-4 it was > 100 µM (inactive); in the test with Malme-3M, 97.7 µM (inactive). For the same compound, the GI50 was > 100 µM (inactive) in the test with NCI-H226; > 100 µM (inactive) with OVCAR-8; > 100 µM (inactive) with RPMI-8226; > 100 µM (inactive) with SF-539; > 100 µM (inactive) with SNB-75; 65.2 µM (inactive) in the test with SW-620.

For `CCCC1CC(=O)NC(=O)C1C(=O)OC(C)(C)C` (centres undefined), the GI50 in the test on ACHN, in the test with BT-549, in the test with COLO 205, in the test on HCT-116, in the test with HT-29 and in the test with IGROV-1 was > 100 µM (inactive) in each case. In addition, the GI50 in the test on KM12, in the test on MDA-N, in the test with MOLT-4, in the test with Malme-3M, with NCI-H226 and with OVCAR-8 was > 100 µM (inactive) in each case. In addition, the GI50 with RPMI-8226, in the test with SNB-75, in the test with SW-620 and in the test with T47D was > 100 µM (inactive) in each case.

For `CC12CC(c3ccccc3O1)C(C(=O)Nc1nccs1)C(=O)N2` (centres undefined), the GI50 with A549 is > 100 µM (inactive); in the test on ACHN, > 100 µM (inactive); with BT-549 it was > 100 µM (inactive); in the test with COLO 205, > 100 µM (inactive); with HCT-116, > 100 µM (inactive); with HOP-92 it was 84.3 µM (inactive). Besides, the GI50 in the test on HT-29, with IGROV-1, with KM12, in the test with MDA-N, with MOLT-4 and in the test on Malme-3M was > 100 µM (inactive) each time. Also, the GI50 in the test with NCI-H226 is > 100 µM (inactive); in the test with OVCAR-8, > 100 µM (inactive); with RPMI-8226, 98.4 µM (inactive); in the test on SNB-75 it was > 100 µM (inactive); with SW-620, > 100 µM (inactive).

As to `O=C1c2sc(-c3ccc(Cl)cc3)cc2-n2cccc21`, the GI50 in the test with A549, with ACHN, with BT-549, in the test with COLO 205, in the test with HCT-116 and in the test on HT-29 was > 100 µM (inactive) throughout. Moreover, the GI50 in the test on IGROV-1, in the test on KM12, in the test on MDA-N, in the test with MOLT-4, in the test with Malme-3M and in the test on NCI-H226 was > 100 µM (inactive) in each case. The GI50 in the test on OVCAR-8, in the test on RPMI-8226, in the test with SNB-75, in the test with SW-620 and with T47D was > 100 µM (inactive) each time.

With `Cc1cccc(Nc2cn(COCc3ccccc3)c(=O)[nH]c2=O)c1`, the GI50 was > 100 µM (inactive) in the test with A549; > 100 µM (inactive) with ACHN; 69.2 µM (inactive) in the test with BT-549; 84.1 µM (inactive) in the test with COLO 205; 90.8 µM (inactive) with HCT-116; > 100 µM (inactive) in the test on HOP-92. For the same compound, the GI50 in the test with HT-29 is 64.6 µM (inactive); in the test on IGROV-1, 29.4 µM (inactive); in the test on KM12, > 100 µM (inactive); in the test with MDA-N, > 100 µM (inactive); in the test with MOLT-4, > 100 µM (inactive); in the test with RPMI-8226, 38.8 µM (inactive). In addition, in the test with SW-620, the GI50 was > 100 µM (inactive).

Consider `CCCCC/C=C\C=C1\C(=O)C=C[C@@H]1C/C=C\CCCC(=O)O`, for which the GI50 in the test with A549 is 5.73 µM (inactive); in the test with ACHN, 2.72 µM (inactive); in the test on BT-549, 2.05 µM (inactive); in the test on COLO 205, 2.96 µM (inactive); in the test on HCT-116, 1.23 µM (inactive); with HT-29, 5.05 µM (inactive). Also, the GI50 in the test on IGROV-1 was 2.75 µM (inactive); in the test on KM12 it was 2.67 µM (inactive); in the test on MDA-N, 1.96 µM (inactive); in the test on MOLT-4 it was 2.25 µM (inactive); in the test on Malme-3M, 10.2 µM (inactive); with NCI-H226, 7.38 µM (inactive). In addition, the GI50 with OVCAR-8 was 1.49 µM (inactive); in the test with RPMI-8226 it was 1.38 µM (inactive); in the test with SF-539 it was 5.82 µM (inactive); in the test with SNB-75, 9.66 µM (inactive); in the test on SW-620, 2.8 µM (inactive); with T47D it was 9.35 µM (inactive).

As to `COC(=O)/C1=C/c2c([nH]c3ccccc23)/C(C(=O)OC)=C\c2c1[nH]c1ccccc21` [CAULERPIN], the GI50 was 33.3 µM (inactive) with A549; 22.2 µM (inactive) in the test on ACHN; 25.6 µM (inactive) with BT-549; > 50 µM (inactive) in the test with COLO 205; 14.2 µM (inactive) in the test with HCT-116; 7.53 µM (inactive) in the test on IGROV-1. For the same compound, the GI50 is 35.2 µM (inactive) in the test on KM12; 15.5 µM (inactive) in the test with MDA-N; 12.9 µM (inactive) with Malme-3M; > 50 µM (inactive) with NCI-H226; 26.6 µM (inactive) in the test with OVCAR-8; 33.5 µM (inactive) in the test on SF-539. The GI50 in the test on SW-620 was 34.4 µM (inactive); in the test on T47D it was 20.2 µM (inactive).
